Laboratory results as given in US20130065818A1, “Arylamide Compounds And Compositions And Uses Thereof” (POLYMEDIX, priority 2006, published 2013).
≈ marks a conversion by molar mass, not a printed value. Read-outs that look alike come from different tables or passages of the source. Each block holds one compound with its values, some of them ahead of it.

Legend:
Format in all cases: cell-based
P. aeruginosa ATCC 10145 = experiment: MIC, laboratory strains (Example 8)
[1] = tested on: Staphylococcus epidermidis (Coagulase-negative Staphylococcus) fluoroquinolone-susceptible; experiment: MIC, 25 ocular isolates, broth microdilution (Example 8)
Method in brief: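 Broth microdilution in Mueller-Hinton broth, polypropylene plates, inoculum from 0.5 McFarland suspension diluted 0.05 ml into 5 ml; final test agent 64–0.0625 μg/ml (128–0.125 μg/ml for P. aeruginosa) in 0.01% acetic acid, 0.2% BSA diluent. Incubated 37° C overnight; MIC read visually as lowest concentration inhibiting visible growth.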

[2] = tested on: K. pneumoniae Lab Strain KP10; experiment: MIC, laboratory strains (Example 8)
[3] = tested on: Ciprofloxacin Susceptible (CS) S. aureus (CSSA); experiment: MIC of clinical ocular isolates (Example 1); settings: Staphylococcus aureus; CSSA clinical ocular isolates (n=27)
Moraxella Species (MS) = experiment: MIC of clinical ocular isolates (Example 1); settings: MS clinical ocular isolates (n=25)
Serratia marcescens (SM) = experiment: MIC of clinical ocular isolates (Example 1); settings: SM clinical ocular isolates (n=27)
H. influenzae (HI) = experiment: MIC of clinical ocular isolates (Example 1); settings: Haemophilus influenzae; HI clinical ocular isolates (n=26)
St. pneumoniae (SP) = experiment: MIC of clinical ocular isolates (Example 1); settings: Streptococcus pneumoniae; SP clinical ocular isolates (n=27)
[4] = tested on: Ciprofloxacin Resistant (CR) S. aureus (CRSA); experiment: MIC of clinical ocular isolates (Example 1); settings: Staphylococcus aureus; CRSA clinical ocular isolates (n=28)
St. viridans group (SV) = experiment: MIC of clinical ocular isolates (Example 1); settings: Streptococcus viridans
P. aeruginosa (PA) = experiment: MIC of clinical ocular isolates (Example 1); settings: Pseudomonas aeruginosa; PA clinical ocular isolates (n=26)
CR S. epidermidis (CRSE) = experiment: MIC of clinical ocular isolates (Example 1); settings: Staphylococcus epidermidis; CRSE clinical ocular isolates (n=26)
CS S. epidermidis (CSSE) = experiment: MIC of clinical ocular isolates (Example 1); settings: Staphylococcus epidermidis; CSSE clinical ocular isolates (n=26)
[5] = 25 isolates, Summary of Results, <0.0625 was Replaced with 0.03125
[6] = Staphylococcus epidermidis, 25 ocular isolates, read-out: Median MIC
[7] = Staphylococcus epidermidis, isolate 1—E511, read-out: MIC
[8] = Staphylococcus epidermidis, isolate 2—E489, read-out: MIC
[9] = Staphylococcus epidermidis, isolate 3—E491, read-out: MIC
[10] = Staphylococcus epidermidis, isolate 4—E476, read-out: MIC
[11] = Staphylococcus epidermidis, isolate 5—E473, read-out: MIC
[12] = Staphylococcus epidermidis, isolate 6—E462, read-out: MIC
[13] = Staphylococcus epidermidis, isolate 7—E460, read-out: MIC
[14] = Staphylococcus epidermidis, isolate 8—E453, read-out: MIC
[15] = Staphylococcus epidermidis, isolate 9—E448, read-out: MIC
[16] = Staphylococcus epidermidis, isolate 10—E443, read-out: MIC
[17] = Staphylococcus epidermidis, isolate 11—E441, read-out: MIC
[18] = Staphylococcus epidermidis, isolate 12—E438, read-out: MIC
[19] = Staphylococcus epidermidis, isolate 13—E437, read-out: MIC
[20] = Staphylococcus epidermidis, isolate 14—E434, read-out: MIC
[21] = Staphylococcus epidermidis, isolate 15—E433, read-out: MIC
[22] = Staphylococcus epidermidis, isolate 16—E430, read-out: MIC
[23] = Staphylococcus epidermidis, isolate 17—E420, read-out: MIC
[24] = Staphylococcus epidermidis, isolate 18—E419, read-out: MIC
[25] = Staphylococcus epidermidis, isolate 19—E403, read-out: MIC
[26] = Staphylococcus epidermidis, isolate 20—E394, read-out: MIC
[27] = Staphylococcus epidermidis, isolate 21—E393, read-out: MIC
[28] = Staphylococcus epidermidis, isolate 22—E328, read-out: MIC
[29] = Staphylococcus epidermidis, isolate 23—E382, read-out: MIC
[30] = Staphylococcus epidermidis, isolate 24—E381, read-out: MIC
[31] = Staphylococcus epidermidis, isolate 25—E372, read-out: MIC
[32] = Staphylococcus epidermidis, n=25 per group, read-out: Median MIC
[33] = Staphylococcus epidermidis, 25 isolates, Summary of Results, read-out: MIC50
[34] = Staphylococcus epidermidis, 25 isolates, Summary of Results, read-out: MIC90
[35] = Staphylococcus epidermidis, 25 isolates, Summary of Results, read-out: Median MIC

Compound: N=C(N)NCCCCC(=O)Nc1cc(C(F)(F)F)cc(NC(=O)c2cc(C(=O)Nc3cc(C(F)(F)F)cc(NC(=O)CCCCNC(=N)N)c3O[C@@H]3CCNC3)ncn2)c1O[C@@H]1CCNC1 [Oligomer 4]
MIC (P. aeruginosa ATCC 10145): 12.5 µg/mL (≈ 13.3 µM) | MIC, sorted list for MIC50 and MIC90 Determinations (QSSE-A) ([1]; 25 isolates sorted ascending, Row 1-25, <0.0625 was Replaced with 0.03125): 0.25 µg/mL | MIC50 ([1]; 25 isolates, Row 13): 0.125 µg/mL (≈ 0.133 µM) | MIC90 ([1]; 25 isolates, Row 22): 0.25 µg/mL (≈ 0.267 µM) | Range of MICs [1, 5]: 0.03125 to 0.25 µg/mL | MIC [1, 6]: ≤ 0.25 µg/mL | MIC [1, 7]: 0.25 µg/mL (≈ 0.267 µM) | MIC [1, 8]: 0.125 µg/mL (≈ 0.133 µM) | MIC [1, 9]: 0.125 µg/mL (≈ 0.133 µM) | MIC [1, 10]: 0.25 µg/mL (≈ 0.267 µM) | MIC [1, 11]: 0.25 µg/mL (≈ 0.267 µM) | MIC [1, 12]: 0.125 µg/mL (≈ 0.133 µM) | MIC [1, 13]: 0.125 µg/mL (≈ 0.133 µM) | MIC [1, 14]: 0.125 µg/mL (≈ 0.133 µM) | MIC [1, 15]: 0.125 µg/mL (≈ 0.133 µM) | MIC [1, 16]: < 0.0625 µg/mL | MIC [1, 17]: < 0.0625 µg/mL | MIC [1, 18]: 0.125 µg/mL (≈ 0.133 µM) | MIC [1, 19]: 0.125 µg/mL (≈ 0.133 µM) | MIC [1, 20]: 0.125 µg/mL (≈ 0.133 µM) | MIC [1, 21]: 0.125 µg/mL (≈ 0.133 µM) | MIC [1, 22]: < 0.0625 µg/mL | MIC [1, 23]: 0.125 µg/mL (≈ 0.133 µM) | MIC [1, 24]: 0.125 µg/mL (≈ 0.133 µM) | MIC [1, 25]: 0.125 µg/mL (≈ 0.133 µM) | MIC [1, 26]: 0.125 µg/mL (≈ 0.133 µM) | MIC [1, 27]: 0.125 µg/mL (≈ 0.133 µM) | MIC [1, 28]: 0.25 µg/mL (≈ 0.267 µM) | MIC [1, 29]: 0.125 µg/mL (≈ 0.133 µM) | MIC [1, 30]: 0.125 µg/mL (≈ 0.133 µM) | MIC [1, 31]: 0.25 µg/mL (≈ 0.267 µM) | MIC [1, 32]: 0.125 µg/mL (≈ 0.133 µM) | MIC50 [1, 33]: 0.125 µg/mL (≈ 0.133 µM) | MIC90 [1, 34]: 0.25 µg/mL (≈ 0.267 µM) | MIC [1, 35]: 0.125 µg/mL (≈ 0.133 µM) | MIC50 ([1]; n=25 per group): 0.125 µg/mL (≈ 0.133 µM) | MIC90 ([1]; n=25 per group): 0.25 µg/mL (≈ 0.267 µM) | Range of MICs ([1]; n=25 per group): 0.03125 to 0.25 µg/mL | MIC [2]: 0.78 µg/mL (≈ 0.833 µM)

MIC50 [3]: 0.125 µg/mL | MIC90 [3]: 0.25 µg/mL | MIC50 (Moraxella Species (MS)): 0.25 µg/mL | MIC90 (Moraxella Species (MS)): 0.5 µg/mL | MIC50 (Serratia marcescens (SM)): 16 µg/mL | MIC90 (Serratia marcescens (SM)): 32 µg/mL | MIC50 (H. influenzae (HI)): 8 µg/mL | MIC90 (H. influenzae (HI)): 16 µg/mL | MIC50 (St. pneumoniae (SP)): 1 µg/mL | MIC90 (St. pneumoniae (SP)): 2 µg/mL | MIC50 [4]: 0.25 µg/mL | MIC90 [4]: 0.25 µg/mL | MIC50 (St. viridans group (SV)): 4 µg/mL | MIC90 (St. viridans group (SV)): 32 µg/mL | MIC50 (P. aeruginosa (PA)): 4 µg/mL | MIC90 (P. aeruginosa (PA)): 8 µg/mL | MIC50 (CR S. epidermidis (CRSE)): 0.03 µg/mL | MIC90 (CR S. epidermidis (CRSE)): 0.03 µg/mL | MIC50 (CS S. epidermidis (CSSE)): 0.03 µg/mL | MIC90 (CS S. epidermidis (CSSE)): 0.03 µg/mL
Compound: N=C(N)NCCCCC(=O)Nc1cc(C(F)(F)F)cc(NC(=O)c2cc(C(=O)Nc3cc(C(F)(F)F)cc(NC(=O)CCCCNC(=N)N)c3SCCN)ncn2)c1SCCN [Oligomer 2]

Compound: N=C(N)NCCCCC(=O)Nc1cc(C(F)(F)F)cc(NC(=O)c2cnc(C(=O)Nc3cc(C(F)(F)F)cc(NC(=O)CCCCNC(=N)N)c3SCCN)cn2)c1SCCN [Oligomer 5]
MIC (P. aeruginosa ATCC 10145): > 100 µg/mL | MIC50 ([1]; 25 isolates, Row 13): 0.125 µg/mL (≈ 0.136 µM) | MIC90 ([1]; 25 isolates, Row 22): 0.25 µg/mL (≈ 0.273 µM) | Range of MICs [1, 5]: 0.03125 to 0.25 µg/mL | MIC [1, 6]: ≤ 0.25 µg/mL | MIC [1, 7]: 0.25 µg/mL (≈ 0.273 µM) | MIC [1, 8]: 0.125 µg/mL (≈ 0.136 µM) | MIC [1, 9]: 0.125 µg/mL (≈ 0.136 µM) | MIC [1, 10]: 0.25 µg/mL (≈ 0.273 µM) | MIC [1, 11]: 0.125 µg/mL (≈ 0.136 µM) | MIC [1, 12]: 0.125 µg/mL (≈ 0.136 µM) | MIC [1, 13]: 0.125 µg/mL (≈ 0.136 µM) | MIC [1, 14]: 0.125 µg/mL (≈ 0.136 µM) | MIC [1, 15]: 0.125 µg/mL (≈ 0.136 µM) | MIC [1, 16]: < 0.0625 µg/mL | MIC [1, 17]: 0.125 µg/mL (≈ 0.136 µM) | MIC [1, 18]: 0.125 µg/mL (≈ 0.136 µM) | MIC [1, 19]: 0.125 µg/mL (≈ 0.136 µM) | MIC [1, 20]: 0.125 µg/mL (≈ 0.136 µM) | MIC [1, 21]: 0.125 µg/mL (≈ 0.136 µM) | MIC [1, 22]: 0.125 µg/mL (≈ 0.136 µM) | MIC [1, 23]: 0.125 µg/mL (≈ 0.136 µM) | MIC [1, 24]: 0.125 µg/mL (≈ 0.136 µM) | MIC [1, 25]: 0.125 µg/mL (≈ 0.136 µM) | MIC [1, 26]: 0.125 µg/mL (≈ 0.136 µM) | MIC [1, 27]: 0.125 µg/mL (≈ 0.136 µM) | MIC [1, 28]: 0.25 µg/mL (≈ 0.273 µM) | MIC [1, 29]: 0.125 µg/mL (≈ 0.136 µM) | MIC [1, 30]: 0.25 µg/mL (≈ 0.273 µM) | MIC [1, 31]: < 0.0625 µg/mL | MIC [1, 32]: 0.125 µg/mL (≈ 0.136 µM) | MIC50 [1, 33]: 0.125 µg/mL (≈ 0.136 µM) | MIC90 [1, 34]: 0.25 µg/mL (≈ 0.273 µM) | MIC [1, 35]: 0.125 µg/mL (≈ 0.136 µM) | MIC50 ([1]; n=25 per group): 0.125 µg/mL (≈ 0.136 µM) | MIC90 ([1]; n=25 per group): 0.25 µg/mL (≈ 0.273 µM) | Range of MICs ([1]; n=25 per group): 0.03125 to 0.25 µg/mL | MIC [2]: 1.56 µg/mL (≈ 1.7 µM)
